≈ marks a conversion by molar mass, not a printed value. Read-outs that look alike come from different tables or passages of the source.
Tests used:
[1] = pKa determination (Sirius GlpKa); type: physicochemical; conditions: 25° C.
Procedure: Data were collected on a Sirius G1pKa instrument with a D-PAS attachment. Measurements were made at 25° C. in aqueous solution by UV and in methanol water mixtures by potentiometry. The titration media was ionic-strength adjusted (ISA) with 0.15 M KCl (aq). The values found in the methanol water mixtures were corrected to 0% co-solvent via a Yasuda-Shedlovsky extrapolation. The data were refined using Refinement Pro software v2.2. Prediction of pKa values was made using ACD/Labs software.

[2] = Log P determination (potentiometric titration); type: physicochemical; conditions: octanol/ionic-strength adjusted (ISA) water
Description: Data were collected by potentiometric titration on a Sirius G1pKa instrument using three ratios of octanol:ionic-strength adjusted (ISA) water to generate Log P, Log Pion, and Log D values. The data were refined using Refinement Pro software. Prediction of Log P values was made using ACD/Labs software.

[3] = Thermodynamic aqueous solubility; conditions: for solubility at 24 h: 25 °C, thermodynamic from solid
Procedure: The suspension was equilibrated at 25° C. for 24 hours then the pH was measured and adjusted with either HCl or NaOH if it deviated by more than 0.3 units from the target pH. The suspension was then filtered through a glass fiber C filter. […] Different volumes of the standard, diluted and undiluted sample solutions were injected.
Analysis was performed on an Agilent HP1100 series system equipped with a diode array detector and using ChemStation software. The following buffers were prepared to carry out the solubility analyses:
pH 1.2—made up by adding 85.0 mL of 0.2M HCl(aq) to 50 mL of 0.2M KCl(aq) and making up to 200 mL. pH 4.5—made up by adding 2.99 g of NaC2H3O2.3H2O to 14.0 mL of 2N AcOH(aq) and making up to 1000 mL. pH 7.4—made up adding 39.1 mL of 0.2M NaOH(aq) to 50.0 mL of a 0.2M KH2PO4 and making up to 200 mL.

**Q.** What does the source list for `CC1(C)OC(c2ccncc2)=C(c2ccc(OCc3cn4ncccc4n3)cc2)C1=O` [Free Base, 4-(4-(imidazo[1,2-b]pyridazin-2-ylmethoxy)phenyl)-2,2-dimethyl-5-(pyridin-4-yl)furan-3(2H)-one]?
**A.** pKa ([1]; read-out: pKa (first of two basic centers)): 3.7; pKa ([1]; read-out: pKa (second of two basic centers)): 2.9; logP [2]: 3; solubility at 24 h ([3]; aqueous buffer, pH 1.2, simulated gastric fluid): 12200 µg/mL (≈ 29600 µM); solubility at 24 h ([3]; aqueous buffer, pH 4.5, aqueous buffer): 90 µg/mL (≈ 218 µM); solubility at 24 h ([3]; aqueous buffer, pH 7.4, aqueous buffer): 50 µg/mL (≈ 121 µM); pH of unfiltered saturated solution ([3]; pH point 1.2): 1.24; pH of unfiltered saturated solution ([3]; pH point 4.5): 4.71; pH of unfiltered saturated solution ([3]; pH point 7.4): 7.44; pH of unfiltered saturated solution ([3]; pH point unadjusted aqueous): 6.19; solubility at 24 h ([3]; water (unadjusted aqueous), water): 60 µg/mL (≈ 145 µM)

— US20160002250A1, “POLYMORPHS AND SALTS OF A COMPOUND” (FORUM Pharmaceuticals Inc., priority 2013, published 2016)
